Assay results taken from patent US10882838B2, “Cannabinergic compounds and uses thereof” (Northeastern University, priority 2012, dated 2021).
pKi: −log10 of the molar value. Where two headings read alike, the source gives them in different places.

How the values were obtained:
hCB2 receptor = hCB2 receptor (Homo sapiens (Human), UniProt P34972); experiment: hCB2 competition-equilibrium binding with [3H]CP-55,940, membranes of HEK293 cells expressing hCB2
Description: (§1) HEK293 cells expressing hCB1 or hCB2 or mCB2 receptor are used for membrane preparations according to Abadji et al. The resulting pellet is resuspended in 10 mM Tris-chloride, pH 7.4, with 5 mM MgCl2 and 2 mM EDTA (TME), rapidly frozen in liquid nitrogen and stored at −80° C. for no longer than two months. Protein content is assayed by using the Bio-Rad protein assay according to the manufacturer's protocol.
(§2) All the cannabinoids discussed in this invention are tested for their ability to bind to CB1 and CB2 receptors using membranes from rat brain or HEK293 cells expressing either mCB2 or hCB2, respectively via competition-equilibrium binding using [^3H]CP-55,940. Results are analyzed using nonlinear regression to determine ligand IC50 (Prism by GraphPad Software, Inc.), and Ki values are calculated from the IC50. IC50 and Ki values are determined from at least three independent experiments.

CB1 receptor = CB1 receptor (Rattus norvegicus (Rat), UniProt P20272); experiment: rCB1 competition-equilibrium binding with [3H]CP-55,940, rat brain membranes; conditions: rat brain membranes, [3H]CP-55,940; read-out: rCB1 Ki
Description: Frozen rat brains (CB1 source) are obtained from Pel-Freeze Biologicals (Rogers, Ak.) and stored at −80° C. until use. Membranes are prepared according to the method described by Dodd et al. and used in our laboratory as reported.
as §2

[1] = Stability in plasma (half-life); type: in vitro ADME, rat or monkey; conditions: method: 200 μM in plasma, 37°; species of plasma not given
Description: The designed compounds carry a side chain that is susceptible to plasma esterase activity, inviting their rapid deactivation. Thus, it is important to characterize the rate of compound metabolism in isolated rat or monkey plasma. As a preliminary predictor of oral stability, this assay will also be done in buffers at pH 2 (to emulate the stomach) and pH 7.4 (physiological pH). Compounds (10 mM in DMSO) are diluted in plasma, acetonitrile or buffer to a concentration of 200 μM and incubated in a 37° shaking water bath for 2 hours. Samples are taken periodically, diluted 1:4 with acetonitrile and centrifuged to precipitate protein. The resulting supernatant is analyzed by HPLC to predict expected in vivo plasma half-lives.

mCB2 receptor = mCB2 receptor (Mus musculus (Mouse), UniProt P47936); experiment: mCB2 competition-equilibrium binding with [3H]CP-55,940, membranes of HEK293 cells expressing mCB2; conditions: HEK293 cells expressing mCB2, [3H]CP-55,940; read-out: mCB2 Ki
Description: as §1, §2

[2] = HEK293 cells expressing hCB2, [3H]CP-55,940, read-out: hCB2 Ki

CC1=CCC2[C@@H](C1)c1c(O)cc(C(C)(C)C(=O)OCCCCC#N)cc1OC2(C)C (stereo in doubt) [Compound 1.3, 4-cyanobutyl-2-((6aS, 10aR)-6a, 7, 10, 10a-tetrahydro-1-hydroxy-6,6,9-trimethyl-6H-benzo[c]chromen-3-yl)-2-methylpropanoate]
pKi (hCB2 receptor): 9.10 | pKi (CB1 receptor): 9.15 | half-life at 200 μM [1]: 40 min

CC1=CC[C@H]2[C@@H](C1)c1c(O)cc(C(C)(C)C(=O)OCCCCBr)cc1OC2(C)C [Compound 1.2, 4-bromobutyl-2-((6aS,10aR)-6a,7,10,10a-tetrahydro-1-hydroxy-6,6,9-trimethyl-6H-benzochromen-3-yl)-2-methylpropanoate]
pKi (hCB2 receptor; [2]): 9.10 | pKi (CB1 receptor): 8.92 | pKi (mCB2 receptor): 9.22 | t 1/2 [1]: 15 min

CC1=CC[C@@H]2[C@@H](C1)c1c(O)cc(C(C)(C)C(=O)OCCCCn3ccnc3)cc1OC2(C)C [Compound 1.6, 4-(1H-imidazol-1-yl)butyl 2-((6aR,10aR)-6a,7,10,10a-tetrahydro-1-hydroxy-6,6,9-trimethyl-6H-benzo[c]chromen-3-yl)-2-methylpropanoate]
pKi (hCB2 receptor; [2]): 8.06 | pKi (CB1 receptor): 7.54 | pKi (mCB2 receptor): 7.94 | half-life at 200 μM [1]: 120 min

CC1=CC[C@@H]2[C@@H](C1)c1c(O)cc(C(C)(C)C(=O)OCCCn3ccnc3)cc1OC2(C)C [Compound 1.10, 3-(1H-imidazol-1-yl)propyl-2-((6aR,10aR)-6a,7,10,10a-tetrahydro-1-hydroxy-6,6,9-trimethyl-6H-benzo[c]chromen-3-yl)-2-methylpropanoate]
pKi (hCB2 receptor; [2]): 8.92 | pKi (CB1 receptor): 8.47 | pKi (mCB2 receptor): 8.70 | half-life at 200 μM [1]: 240 min

CCCCOC(=O)C(C)c1cc(O)c2c(c1)OC(C)(C)[C@@H]1CC=C(C)C[C@@H]21 (stereo partly drawn) [Compound 1.12, Butyl 2-((6aR,10aR)-1-hydroxy-6,6,9-trimethyl-6a,7,10,10a-tetrahydro-6H-benzo[c]chromen-3-yl)propanoate]
pKi (hCB2 receptor; [2]): 9.00 | pKi (CB1 receptor): 9.15 | pKi (mCB2 receptor): 8.92 | half-life at 200 μM [1]: 3 min

CCOC(=O)C(C)(C)c1cc(O)c2c(c1)OC(C)(C)[C@@H]1CC=C(C)C[C@@H]21 [Compound 1.35, Ethyl-2-((6aR,10aR)-6a,7,10,10a-tetrahydro-1-hydroxy-6,6,9-trimethyl-6H-benzo[c]chromen-3-yl)-2-methylpropanoate]
pKi (hCB2 receptor; [2]): 8.82 | pKi (CB1 receptor): 8.57 | pKi (mCB2 receptor): 9.30

CC1=CC[C@@H]2[C@@H](C1)c1c(O)cc(C(C)(C)C(=O)OCCBr)cc1OC2(C)C [Compound 1.36, 2-bromoethyl-2-((6aR,10aR)-6a,7,10,10a-tetrahydro-1-hydroxy-6,6,9-trimethyl-6H-benzo [c]chromen-3-yl)-2-methylpropanoate]
pKi (hCB2 receptor; [2]): 8.11 | pKi (CB1 receptor): 8.54 | pKi (mCB2 receptor): 8.49

CC(C)(C(=O)O)c1cc(O)c2c(c1)OC(C)(C)[C@@H]1CC=C(CO)C[C@@H]21 [Compound 2.1, 2-((6aR, 10aR)-6a,7,10,10a-tetrahydro-1-hydroxy-9-(hydroxymethyl)-6,6-dimethyl-6H-benzo[c]chromen-3-yl)-2-methylpropanoic Acid]
pKi (hCB2 receptor; [2]): < 5.00 | pKi (CB1 receptor): < 5.00 | pKi (mCB2 receptor): < 5.00

CC1(C)Oc2cc(CC(=O)O)cc(O)c2[C@@H]2CC(=O)CC[C@H]21 [Compound 3.1, 2-((6aR,10aR)-6a,7,8,9,10,10a-hexahydro-1-hydroxy-6,6-dimethyl-9-oxo-6H-benzo[c]chromen-3-yl)acetic acid]
pKi (hCB2 receptor; [2]): < 5.00 | pKi (CB1 receptor): < 5.00 | pKi (mCB2 receptor): < 5.00

CCCCOC(=O)Cc1cc(O)c2c(c1)OC(C)(C)[C@@H]1CCC(=O)C[C@@H]21 [Compound 3.2, Butyl-2-((6aR,10aR)-6a,7,8,9,10,10a-hexahydro-1-hydroxy-6,6-dimethyl-9-oxo-6H-benzo[c]chromen-3-yl)acetate]
pKi (hCB2 receptor; [2]): 6.00 | pKi (CB1 receptor): 6.00 | pKi (mCB2 receptor): 6.00

CC(C)(C(=O)O)c1cc(O)c2c(c1)OC(C)(C)[C@@H]1CCC(=O)C[C@@H]21 [Compound 3.3, 2-((6aR,10aR)-6a,7,8,9,10,10a-hexahydro-1-hydroxy-6,6-dimethyl-9-oxo-6H-benzo[c]chromen-3-yl)-2-methylpropanoic Acid]
pKi (hCB2 receptor; [2]): < 5.00 | pKi (CB1 receptor): < 5.00 | pKi (mCB2 receptor): < 5.00

CCCCOC(=O)C(C)(C)c1cc(O)c2c(c1)OC(C)(C)[C@@H]1CCC(=O)C[C@@H]21 [Compound 3.4, Butyl-2-((6aR,10aR)-6a,7,8,9,10,10a-hexahydro-1-hydroxy-6,6-dimethyl-9-oxo-6H-benzo[c]chromen-3-yl)-2-methylpropanoate]
pKi (hCB2 receptor; [2]): 8.21 | pKi (CB1 receptor): 8.66 | pKi (mCB2 receptor): 8.14

CC(C)(C(=O)O)c1cc(O)c2c(c1)OC(C)(C)[C@@H]1CC[C@@H](O)C[C@@H]21 [Compound 3.5, 2-((6aR,9R,10aR)-6a,7,8,9,10,10a-hexahydro-1,9-dihydroxy-6,6-dimethyl-6H-benzo[c]chromen-3-yl)-2-methylpropanoic Acid]
pKi (hCB2 receptor; [2]): < 5.00 | pKi (CB1 receptor): < 5.00 | pKi (mCB2 receptor): < 5.00

CC(C)(C(=O)O)c1cc(O)c2c(c1)OC(C)(C)[C@@H]1CC[C@H](O)C[C@@H]21 [Compound 3.7, 2-((6aR,9S,10aR)-6a,7,8,9,10,10a-hexahydro-1,9-dihydroxy-6,6-dimethyl-6H-benzo[c]chromen-3-yl)-2-methylpropanoic Acid]
pKi (hCB2 receptor; [2]): < 5.00 | pKi (CB1 receptor): < 5.00 | pKi (mCB2 receptor): < 5.00

CCCCOC(=O)C(C)(C)c1cc(O)c2c(c1)OC(C)(C)[C@@H]1CC[C@@H](CO)C[C@H]21 [Compound 3.9, Butyl 2-((6aR,9R,10aS)-1-hydroxy-9-(hydroxymethyl)-6,6-dimethyl-6a,7,8,9,10,10a-hexahydro-6H-benzo[c]chromen-3-yl)-2-methylpropanoate]
pKi (hCB2 receptor; [2]): 8.19 | pKi (CB1 receptor): 8.62 | pKi (mCB2 receptor): 8.37

CCCCCCC(C)(C)c1cc(O)c2c(c1)OC(C)(C)[C@@H]1CCC(=O)OC[C@@H]21 [Compound 3.10, (5aR,11bR)-11-hydroxy-6,6-dimethyl-9-(2-methyloctan-2-yl)-4,5,5a,6-tetrahydro-1H-oxepino[4,3-c]chromen-3(11bH)-one]
half-life at 200 μM [1]: 15 min

CCOC(=O)C(C)(C)c1cc(OC)c(-c2cccc(C#N)c2)c(OC)c1 [Compound 4.1, Ethyl 2-(3′-cyano-2,6-dimethoxybiphenyl-4-yl)-2-methylpropanoate]
pKi (hCB2 receptor; [2]): < 6.00 | pKi (CB1 receptor): < 6.00 | pKi (mCB2 receptor): < 6.00

CCOC(=O)C(C)(C)c1cc(OC)c(-c2cc(C)cc(C)c2)c(OC)c1 [Compound 4.3, Ethyl 2-(2,6-dimethoxy-3′,5′-dimethylbiphenyl-4-yl)-2-methylpropanoate]
pKi (hCB2 receptor; [2]): 6.00 | pKi (CB1 receptor): 6.00 | pKi (mCB2 receptor): 6.00

CCOC(=O)C(C)(C)c1cc(O)c(-c2cc(C)cc(C)c2)c(O)c1 [Compound 4.4, Ethyl 2-(2,6-dihydroxy-3′,5′-dimethylbiphenyl-4-yl)-2-methylpropanoate]
pKi (hCB2 receptor; [2]): 7.31 | pKi (CB1 receptor): 6.03 | pKi (mCB2 receptor): 7.44

CCOC(=O)C(C)(C)c1cc(O)c(-c2cc(C)cc(C)c2)c(OC)c1 [Compound 4.5, Ethyl 2-(2-hydroxy-6-methoxy-3′,5′-dimethylbiphenyl-4-yl)-2-methylpropanoate]
pKi (hCB2 receptor; [2]): 6.43 | pKi (CB1 receptor): 6.00 | pKi (mCB2 receptor): 6.97

CCOC(=O)C(C)(C)c1cc(OC)c(-c2cc(Cl)cc(Cl)c2)c(OC)c1 [Compound 4.6, Ethyl 2-(3′,5′-dichloro-2,6-dimethoxybiphenyl-4-yl)-2-methylpropanoate]
pKi (hCB2 receptor; [2]): 6.00 | pKi (CB1 receptor): 6.00 | pKi (mCB2 receptor): 6.00
